# Test results reported in patent US20220399129A1, “SYSTEMS AND METHODS FOR TERRAFORMING” (Flagship Pioneering Innovations VI, LLC, priority 2021, published 2022).
# Test system: primary human bronchial epithelial cells (HBECs)
# Assay: ALI differentiation of HBECs with IL-13, immunofluorescence/histology readout
# Type: cell-based
# Settings: IL-13 treatment during ALI differentiation, day 14, 1 ng/mL
# Method: FIG. 14A illustrates an experimental scheme of culturing the undifferentiated basal cells known as primary human bronchial epithelial cells (HBECs) at the air-liquid interface in the presence or absence of IL-13 and the perturbagens. […] Pseudostratified airway epithelium was formed by day 14 of ALI differentiation in the presence of 1 ng/mL of […]. Total mucus (AB/PAS), goblet cells (Muc5ac^+), and ciliated cells (acetyl α-tubulin^+) were visualized via immunofluorescence or histology. For histology analysis, the differentiated HBECs on day 14 of ALI were stained with AB/PAS, Muc5ac, and acetyl α-tubulin. […] Immunofluorescence allows for a top down view of the most apical layer of cells, while histology presents a cross-section of the pseudostratified epithelium and is amenable for image quantification.
# Using scRNA-seq data, Compound B1 was predicted to inhibit goblet cells and promote club cells within the top 1.2% of compounds of the intervention library. […] Goblet and club cells were assessed by Muc5ac and Scgblal primers, respectively. […] Goblet and ciliated cells were assessed by Muc5ac and Foxj1 primers, respectively. […]
# Pseudostratified airway epithelium was formed by day 14 of ALI differentiation. […] In addition, qPCR of ciliated (Foxj1) and goblet (Muc5ac) marker expression was used as a sensitive and quantitative readout of epithelial cell type distribution. […]
substance,measurement,value
IL-13: inflammatory signaling cytokine (R&D) used to induce goblet cell hyperplasia,ciliated cells (acetyl α-tubulin+),reduces ciliated cells
same,"goblet cells (Muc5ac+), total mucus (AB/PAS)",induces goblet cell hyperplasia
